“And” between values parts separate entries of the source, which are not always exact repeats. Equal entries are not always repeated. “Also recorded” adds a separate entry of the source.
Tests used:
[1] = system: SD/Hsd male rats, surgically induced infarct; test: Infarct (scar) size after LAD ligation, Evans blue/TTC staining and planimetry; assay type: in vivo
[2] = system: SD/Hsd male rats, surgically induced infarct; test: Histopathology of infarcted hearts (hematoxylin and eosin, Masson trichrome); assay type: in vivo
[3] = system: SD/Hsd male rats, surgically induced infarct; test: Echocardiography before and 7 days after LAD ligation; conditions: for LVEDD (left ventricular end-diastolic diameter) / LVESD (left ventricular end-systolic diameter) / SF (shortening fraction): CBD group
Method: In the following experiment 14 SD/Hsd male rats weighing 275-350 g were used.
Rats were anesthetized with ketamine (10%): xylazine (2%), 0.85:0.15 IM 0.1 ml/kg. Animals were intubated and ventilated with a small animal respirator (Harvard Sc.). The heart was exposed via left sternotomy and the LAD was reversibly occluded for 30 minutes using a snare fashioned from an encircling silk ligature and a section of 5 French feeding tube. Coronary occlusion and reperfusion were verified by visual inspection. Following reperfusion the released ligature was left in situ. The chest was then closed in layers using uninterrupted sutures. Rats were extubated, received 30-50 cc saline subcutaneously to replace lost body fluids, and were treated with Rymadil (5 mg/kg, i.p.) analgesia for 3 days. […] The drug and the vehicle solutions were prepared in separate laboratories, ensuring that the staff (e.g. echocardiography and pathology) was blinded to the treatment arm. After 7 days, animals were re-anesthetized and ventilated as described above. The LAD was permanently re-occluded, and the heart harvested for further analysis.
Rats were anesthetized with Ketamine (10%):Xylasine (2%), 0.85:0.15 IM 0.1 ml/kg and the chest cavity was shaved. Echo was carried out prior to surgery and 1 week after, prior to sacrifice of the animals.
Echo imaging was performed using a GE Vivid3 platform, equipped with a 13 MHz linear epiaortic transducer (General Electric, Haifa, Israel). The probe was positioned in a left parasternal position, and 2D imaging of the heart in the short axis was performed using a high frame rate. This image was used to guide an M-mode cursor down the medial axis of the left ventricle. Measurements were performed in triplicates using the leading edge convention for myocardial borders.
The following parameters were measured: Left ventricular end-diastolic diameter (LVEDD) Left ventricular end-systolic diameter (LVESD); anterior wall thickness in diastole and systole (AWTd, AWTs); and Heart rate (HR).
Shortening fraction (SF) was calculated using the above variables.

ApoE−/− mice [4] = test: Plasma triglyceride levels in ApoE−/− mice on high-fat diet; conditions: 20 IP injections of 5 mg/kg, 12 h fasting
Method: (§1) Twelve- to fourteen-week-old male and female ApoE ApoE^−/− mice on a C57B1/6 background were fed a high-fat diet (Takland adjusted calories, Western-type diet: 2.1% fat, 15% cholesterol, 19.5% casein) for 12 weeks.
Blood samples were collected in capillary tubes following twelve hours of fasting, and immediately centrifuged for plasma removal.
(§2) Control mice were injected with Cremophor:ethanol:saline 1:1:18. Plasma triglyceride levels were assayed following twelve hours fasting using an enzymatic reagent (Sigma™).

ApoE−/− mice [5] = test: LDL cholesterol levels in ApoE−/− mice (Friedewald formula); conditions: high-fat diet, 20 IP injections of 5 mg/kg
Method: as §1
Blood samples were collected in capillary tubes following twelve hours of fasting, and immediately centrifuged for plasma removal. Plasma samples were assayed for total cholesterol using conventional colorimetric assays.
as §2
LDLc=TC−triglycerides levels/5-HDLc
Statistical analysis was by ANOVA test (ANalysis Of VAriance between groups).

ApoE−/− mice [6] = test: Size of atherosclerotic plaques in the aorta of ApoE−/− mice
Method: ApoE knock-out (ApoE^−/−) mice are known to spontaneously develop atherosclerosis, which may be enhanced by a high-fat diet. Twelve- to fourteen-week-old male and female ApoE ApoE^−/− mice on a C57B1/6 background were fed a high-fat diet (Takland adjusted calories, Western-type diet: 2.1% fat, 15% cholesterol, 19.5% casein) for 12 weeks.
Blood samples were collected in capillary tubes following twelve hours of fasting, and immediately centrifuged for plasma removal. Plasma samples were assayed for total cholesterol using conventional colorimetric assays. Mice were then sacrificed, and their aorta were extracted and examined for the presence and size of atherosclerotic lesions (plaques).
as §2

[7] = Day 7 after LAD ligation, 5 mg/kg IP daily

Substance: Cannabidiol [CBD]
- % infarct size ([1]; individual animals of CBD-treated group): 16.3% and 15.3% and 14.6% and 13.9% and 6.5% and 7.5% and 7.6% (2×) and 8.1% and 7.8%
- mean infarct size as percent of area at risk ([1]; rats, 5 mg/kg IP 1 h before surgery and daily, 7 days, control 28.2±7.0%): 9.6±3.9%
- inflammation in heart histology ([2]; FIG. 4B, animal treated with CBD): almost total lack of inflammation
- granulation tissue formation with early collagen deposition vs control ([2]; Masson trichrome staining): similar; also recorded: did not affect
- inflammatory infiltrate grade (leukocytes infiltrating the border of the infarcted zone) ([2]; graded by pathologist, control animals 2-3): 1+ or nullnil (0)
- LVEDD (left ventricular end-diastolic diameter) ([3]; Day 0 (baseline)): 0.70 ± 0.06 mm
- LVESD (left ventricular end-systolic diameter) ([3]; Day 0 (baseline)): 0.36 ± 0.08 mm
- SF (shortening fraction) ([3]; Day 0 (baseline)): 48.27±8.6%
- LVEDD (left ventricular end-diastolic diameter) [3, 7]: 0.72 ± 0.05 mm
- LVESD (left ventricular end-systolic diameter) [3, 7]: 0.43 ± 0.07 mm
- SF (shortening fraction) ([3]; Day 7 after LAD ligation, 5 mg/kg IP daily, 5 mg/kg): 39.7±8.22%
- LV function in M mode echocardiography ([3]; FIG. 4D, CBD-treated animal): preserved LV function
- lowering of plasma triglyceride levels compared with control-treated mice (ApoE−/− mice [4]): 59%
- lowering of LDL levels vs control (ApoE−/− mice [5]): 17%
- LDL cholesterol level (ApoE−/− mice [5]; calculated by Friedewald formula): 1300 mg/dL
- atherosclerotic plaques, average % of the aorta area (ApoE−/− mice [6]; first experiment, 12 CBD-treated mice, control 5.5%): 3.18%
- plaque area, % of the total aorta area (ApoE−/− mice [6]; second experiment, control 10.6%): 5.09%

From US20100158973A1 (HADASIT MEDICAL RESEARCH SERVICES & DEVELOPMENT LlIMITED, priority 2006, published 2010)
